The text below walks through data of patent publication US8980646B2, “Proteolytic and covalent antibodies” (priority 2003, dated 2015).

One data set deals with IgG. It counts as biochemical, human.
A further data set concerns human IgG HS-2. Description: Irreversible inhibition of HS-2 IgG-catalyzed [Tyr10-125I]-VIP cleavage. Conditions: for IC50: IgG 2 μM preincubated 16 h with CRA, unreacted CRA removed. It counts as biochemical. Here is the method:
FIG. 23. Inhibition of polyclonal antibody catalyzed VIP cleavage by VIP-CRA 3 and hapten CRA 1. Panel A: Reversed-phase HPLC profiles showing cleavage of [Tyr^10-^125I]-VIP at multiple sites by human IgG HS-2. [Tyr^10-^1251I]-VIP incubated in the presence (●) or absence (◯) of HS-2 IgG (2 μM) for 16 h and subjected to HPLC [Nova-pak C, 3.9×150 mm; 0.1% TFA in water: 0.1% TFA in 80% acetonitrile 95:5 for 10 min, 95:5 to 30:70 in 55 min, 30:70 to 0:100 in 5 min, 0:100 for 5 min (0.5 ml/min)]. Shown are values of ^125I radioactivity recovered in the HPLC fractions (0.5 ml). Panel B: Irreversible inhibition of HS-2 IgG-catalyzed [Tyr^10-^125I]-VIP cleavage by VIP-CRA 3 and hapten CRA 1. IgG (2 μM) was preincubated for 16 h in the absence or presence of increasing concentrations of VIP-CRA 3 (●) or hapten CRA 1 (◯). Following removal of unreacted CRA by chromatography on immobilized Protein G, the residual catalytic activity of the IgG was measured using [Tyr^10-^125I]-VIP as substrate. Data are means±SD. Control HS-2 IgG incubated in the absence of CRAs cleaved 2791 c.p.m. [Tyr^10-^125I]-VIP.
Preparation and assay of cleavage of [Tyr^10-^125I]-VIP were described previously (24). To determine if the CRAs inhibit Abs irreversibly, IgG (2 μM) was incubated (37° C.) with 1 or 3 for 16 h in 50 mM Tris.HCl-0.1M Gly (pH 8.0) containing 2.5% DMSO and 0.025% Tween 20. Unreacted 1 or 3 was then removed by chromatography of the reaction mixtures (0.2 ml) on protein G columns as in ref35 (50 μl settled gel; washed with 0.8 ml 50 mM Tris.HCl, pH 7.4; eluted with 0.2 ml 0.1 M Gly.HCl, pH 2.7; neutralized with 1M Tris.HCl, pH 9). Fifty μl aliquots of the recovered IgG (and IgG-CRA complexes) were incubated with [Tyr^10-^125I]-VIP (86,000 c.p.m.) for 18 h and peptide cleavage was determined by measuring the radioactivity soluble in trichloroacetic acid. Control IgG samples were incubated without CRA, chromatographed and analyzed for VIP cleaving activity in the same way.

A further data set concerns polyclonal murine IgM. It is filed as biochemical, mouse.
A further data set has as its system murine splenocytes. Description: Hapten CRA I staining of splenocytes / B cells (microscopy, flow cytometry, extract affinity chromatography).
Data set [1] concerns the target exEGFR protein CRA IV (human) (UniProt P00533).
In data set [2] the target is gp120-CRA III (HIV-1, MN strain) (UniProt P05877). Description: ELISA, serum 1:100, immobilized III.
For data set [3], the target named is HIV-1 gp120 (MN strain, recombinant, baculovirus expression system) (HIV-1, MN strain) (UniProt P05877). In words: ELISA, serum 1:100, immobilized gp120.
The test system of the next data set is peptide-AMC substrates. In words: Peptide-AMC cleavage by IgM, IgG and Fab (fluorimetry). It is filed as biochemical. Conditions: 675 nM pepsin; other conditions as FIG. 31B.
Data set [4] concerns anti-VIP IgG c23.5 light chain. It counts as binding, mouse.
Data set [5] is described as follows: Irreversible hapten CRA I binding by IgG, scFv and trypsin (SDS-electrophoresis of biotin-containing adducts). Conditions: CRA I 100 μM; linear regression of FIG. 8B data.

For the molecule `N=C(N)c1ccc(C(NC(=O)CCCCCNC(=O)CCCC[C@@H]2SC[C@@H]3NC(=O)N[C@@H]32)P(=O)(Oc2ccccc2)Oc2ccccc2)cc1` (stereo partly drawn) [hapten CRA I, Diphenyl N-(6-biotinamidohexanoyl)amino(4-amidinophenyl)methanephosphonate], in the data set on IgG, the “effect on IgG-catalyzed peptide-MCA cleavage” value is reported as “inhibited”. The IC50 with human IgG HS-2 turned out to be 36 µM; in the data set on polyclonal murine IgM (read-out: IC50, murine IgM Glu-Ala-Arg-AMC cleavage) it was 42 µM. In the data set with polyclonal murine IgM, the “inhibition of murine IgM activity” value was 9-100%. In addition, in the data set with murine splenocytes, the “cell viability following incubation (trypan blue exclusion)” value is “No loss of viability”. Moreover, the “CRA I-stained cells positive for B cell marker CD19” value with murine splenocytes (3 repeat experiments) is reported as 82±4%. Also, the “total CRA content of B cells adsorbed by immobilized Abs to μ and κ/λ chains” value in the data set with murine splenocytes (B cell extract, densitometry) is reported as “Eighty”. For the same molecule, in the data set on murine splenocytes (N 3 experiments, counting 400 lymphocytes, UV microscope), the “cells displaying intense staining” value turned out to be 11±2. Also, the “minority subpopulation with very high fluorescence intensity” value with murine splenocytes (flow cytometry) is listed as 14%. In addition, the “CRA I-treated cells with fluorescence intensity exceeding compound II-treated cells” value with murine splenocytes (flow cytometry, 100 μM, 4 hours) is on record as “Seventy nine”.
As for “VIP-CRA 3: N-terminally biotinylated VIP with amidino phosphonate diester on the Lys20 side chain; called VIP-CRA 4 in Examples VI, XI”, in the data set on human IgG HS-2 (IgG 2 μM preincubated 16 h), the “VIP-CRA concentration giving near-complete inhibition of catalysis” value was above 20 µM. Further, inhibition in the data set on human IgG HS-2 was half-maximal at 7 µM (IC50).
“nonimmune mouse IgG / nonimmune mouse serum (antibody)” registered a kobs (pseudo-first order rate constant for accumulation of adducts) in data set [1] below 0.0072 h⁻¹. Moreover, the A490 is -0.002 A490 in [2] and 0.001 A490 in data set [3].
As for “pepsin: purified porcine pepsin used as control”, in the data set on peptide-AMC substrates, the “cleavage of Glu-Ala-Arg-AMC by pepsin” value was “did not cleave”.
For vasoactive intestinal peptide [VIP], the “inhibition of formation of VIP-CRA 3 adducts with anti-VIP light chain” value in data set [4] came out at 41.0±7%.

B1: trypsin: porcine trypsin, type IX, Sigma (protein, UniProt P00761 9-231, looked up)
Trypsin: IVGGYTCAANSIPYQVSLNSGSHFCGGSLINSQWVVSAAHCYKSRIQVRLGEHNIDVLEGNEQFINAAKIITHPNFNGNTLDNDIMLIKLSSPATLNSRVATVSLPRSCAAAGTECLISGWGNTKSSGSSYPSLLQCLKAPVLSDSSCKSSYPGQITGNMICVGFLEGGKDSCQGDSGGPVVCNGQLQGIVSWGYGCAQKNKPGVYTKVCNYVNWIQQTIAAN
As to B1, the “velocity of covalent I adduct formation” value in data set [5] is on record as 11.9±0.6 AAU/min.
